Results on four compounds are retold here after patent US4476298A, “Erythromycin A derivatives” (Taisho Pharmaceutical Co., Ltd., priority 1981, dated 1984).

Converted amounts (≈) assume the structure as drawn. Like-named read-outs stand apart in the source and are kept apart here.

What all share (experiment): antibacterial activity (MIC), agar plate dilution method
Format in all cases: cell-based

The test system of experiment [1] is Staphylococcus aureus FDA 209 P. As to conditions: for MIC: Staphylococcus aureus. The method, then: (§1) Erythromycin A was used as a control, and the compounds of formula I derived from Fractions A, B and C were tested for antibacterial activity against various bacteria by the agar plate dilution method.
For another experiment, the system named is Bacillus subtilis EM-R. Conditions: for MIC: Bacillus subtilis, read-out: MIC value (minimal inhibitory concentration), Bacillus subtilis EM-R, strain resistant to erythromycin. The method, then:
as §1

Another experiment relates to Micrococcus luteus NIHJ. As to conditions: for MIC: read-out: MIC value (minimal inhibitory concentration). The method, then: as §1
In experiment [2] the test system is Staphylococcus epidermidis IID 866. As to conditions: for MIC: Staphylococcus epidermidis. The method, then: as §1
Experiment [3] relates to Streptococcus faecalis ATCC 8043. As to conditions: for MIC: Enterococcus faecalis. Here is the method:
as §1

Experiment [4] has as its system Staphylococcus aureus TPR 13. Conditions: for MIC: Staphylococcus aureus. The method, then:
as §1

Experiment [5] has as its system Staphylococcus aureus TPR 25. As to conditions: for MIC: Staphylococcus aureus. Here is the method: as §1
Experiment [6] relates to Staphylococcus aureus TPR 23. As to conditions: for MIC value (minimal inhibitory concentration): Staphylococcus aureus TPR 23, strain resistant to erythromycin; for MIC: Staphylococcus aureus. The method, then:
as §1

Experiment [7] has as its system Staphylococcus aureus smith. Conditions: for MIC: Staphylococcus aureus, read-out: MIC value (minimal inhibitory concentration). The method, then:
as §1

Setting [8] is: FDA209, Staphylococcus aureus FDA 209 P, agar plate dilution, read-out: MIC value (minimal inhibitory concentration).
Where [9] appears, read: Micrococcus luteus NIHJ, agar plate dilution.
The mark [10] stands for this setting: IID866, Staphylococcus epidermidis IID 866, agar plate dilution, read-out: MIC value (minimal inhibitory concentration).
Setting [11] is: ATCC8043, Streptococcus faecalis ATCC 8043, agar plate dilution, read-out: MIC value (minimal inhibitory concentration).
Where [12] appears, read: TPR13, Staphylococcus aureus TPR 13, strain resistant to erythromycin, agar plate dilution, read-out: MIC value (minimal inhibitory concentration).
The mark [13] stands for this setting: TPR25, Staphylococcus aureus TPR 25, strain resistant to erythromycin, agar plate dilution, read-out: MIC value (minimal inhibitory concentration).
The mark [14] stands for this setting: Staphylococcus aureus smith, agar plate dilution.

As to `CC[C@H]1OC(=O)[C@H](C)[C@@H](O[C@H]2C[C@@](C)(OC)[C@@H](OC)[C@H](C)O2)[C@H](C)[C@@H](O[C@@H]2O[C@H](C)C[C@H](N(C)C)[C@H]2O)[C@@]2(C)C[C@@H](C)C(OC)(O2)[C@H](C)[C@H]2OC(=O)O[C@@]21C` (single isomer, unassigned) [A], the MIC in experiment [1] (setting [8]) was no more than 0.05 µg/mL; with Bacillus subtilis EM-R, 0.4 µg/mL (≈ 0.508 µM); in the experiment on Micrococcus luteus NIHJ (setting [9]), less than 0.05 µg/mL; in [2] (setting [10]), 0.4 µg/mL (≈ 0.508 µM); in experiment [3] (setting [11]), no more than 0.05 µg/mL; in experiment [4] (setting [12]), 1.6 µg/mL (≈ 2.03 µM). In addition, the MIC amounted to 1.6 µg/mL (≈ 2.03 µM) in experiment [5] (setting [13]) and 0.4 µg/mL (≈ 0.508 µM) in experiment [7] (setting [14]). In addition, the “MIC value (minimal inhibitory concentration)” value in experiment [6] (agar plate dilution) turned out to be 3.1 µg/mL (≈ 3.93 µM).
As for `CC[C@H]1OC(=O)[C@H](C)[C@@H](O[C@H]2C[C@@](C)(OC)[C@@H](OC)[C@H](C)O2)[C@H](C)[C@@H](O[C@@H]2O[C@H](C)C[C@H](N(C)C)[C@H]2O)[C@@]2(C)C[C@@H](C)C(OC)(O2)[C@H](C)[C@H]2OC(=O)O[C@@]21C` (single isomer, unassigned) [B], the “MIC value (minimal inhibitory concentration)” value in experiment [1] (Staphylococcus aureus FDA 209 P, agar plate dilution) is 0.1 µg/mL (≈ 0.127 µM); with Bacillus subtilis EM-R (Bacillus subtilis EM-R, strain resistant to erythromycin) it was 0.8 µg/mL (≈ 1.02 µM); with Micrococcus luteus NIHJ (setting [9]), less than 0.05 µg/mL; in experiment [2] (Staphylococcus epidermidis IID 866, agar plate dilution) it was 0.8 µg/mL (≈ 1.02 µM); in experiment [3] (Streptococcus faecalis ATCC 8043, agar plate dilution), 0.1 µg/mL (≈ 0.127 µM); in experiment [4] (Staphylococcus aureus TPR 13, strain resistant to erythromycin, agar plate dilution) it was 3.1 µg/mL (≈ 3.93 µM). For the same compound, the “MIC value (minimal inhibitory concentration)” value came out at 3.1 µg/mL (≈ 3.93 µM) in experiment [5] (Staphylococcus aureus TPR 25, strain resistant to erythromycin, agar plate dilution); 6.25 µg/mL (≈ 7.93 µM) in [6] (agar plate dilution); 0.8 µg/mL (≈ 1.02 µM) in experiment [7] (setting [14]).
Consider `CC[C@H]1OC(=O)[C@H](C)[C@@H](O[C@H]2C[C@@](C)(OC)[C@@H](OC)[C@H](C)O2)[C@H](C)[C@@H](O[C@@H]2O[C@H](C)C[C@H](N(C)C)[C@H]2O)[C@@]2(C)C[C@@H](C)C(O)(O2)[C@H](C)[C@H]2OC(=O)O[C@@]21C` (single isomer, unassigned) [C], for which the MIC is no more than 0.05 µg/mL in experiment [1] (setting [8]); 0.4 µg/mL (≈ 0.517 µM) with Bacillus subtilis EM-R; less than 0.05 µg/mL with Micrococcus luteus NIHJ (setting [9]); 0.4 µg/mL (≈ 0.517 µM) in experiment [2] (setting [10]); no more than 0.05 µg/mL in experiment [3] (setting [11]); 0.8 µg/mL (≈ 1.03 µM) in experiment [4] (setting [12]). The MIC came out at 0.8 µg/mL (≈ 1.03 µM) in experiment [5] (setting [13]); 3.1 µg/mL (≈ 4.01 µM) in [6] (TPR23, Staphylococcus aureus TPR 23, strain resistant to erythromycin, agar plate dilution, read-out: MIC value (minimal inhibitory concentration)); 0.2 µg/mL (≈ 0.258 µM) in experiment [7] (setting [14]).
With `CC[C@H]1OC(=O)[C@H](C)[C@@H](O[C@H]2C[C@@](C)(OC)[C@@H](O)[C@H](C)O2)[C@H](C)[C@@H](O[C@@H]2O[C@H](C)C[C@H](N(C)C)[C@H]2O)[C@](C)(O)C[C@@H](C)C(=O)[C@H](C)[C@@H](O)[C@]1(C)O` [Erythromycin A], the MIC in [1] (FDA209, read-out: MIC value (minimal inhibitory concentration)) was no more than 0.05 µg/mL; in the experiment on Bacillus subtilis EM-R, greater than 100 µg/mL; with Micrococcus luteus NIHJ (Micrococcus luteus), less than 0.05 µg/mL; in [2] (IID866, read-out: MIC value (minimal inhibitory concentration)) it was 0.4 µg/mL (≈ 0.545 µM); in experiment [3] (ATCC8043, read-out: MIC value (minimal inhibitory concentration)), no more than 0.05 µg/mL; in experiment [4] (TPR13, read-out: MIC value (minimal inhibitory concentration)) it was 25 µg/mL (≈ 34.1 µM). Moreover, the MIC in experiment [5] (TPR25, read-out: MIC value (minimal inhibitory concentration)) worked out at 50 µg/mL (≈ 68.1 µM); in experiment [6] (TPR23, read-out: MIC value (minimal inhibitory concentration)) it was 100 µg/mL (≈ 136 µM); in [7], 0.2 µg/mL (≈ 0.273 µM).
